According to patent US20240174684A1, “INHIBITORS OF cGAS ACTIVITY AS THERAPEUTIC AGENTS” (BELLBROOK LABS, LLC, priority 2021, published 2024):
pIC50: −log10 of the molar value. In brackets after ≈: the same amount, converted by molar mass. Where two headings read alike, the source gives them in different places.

Columns and labels:
[1] = biological target: T1, cGAS (Homo sapiens, UniProt Q8N884); experiment: Transcreener cGAS enzymatic assay (FP); assay type: biochemical
Outline: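 Human cGAS (30 nm) inhibition, 60 min reactions, FP read-out, standard conditions 100 μM ATP and GTP plus 62.5 nM bp ISD. Also run at 1 mM ATP and GTP (physiological), with 200 μM MnCl2, and with mouse cGAS under standard conditions; IC50 reported.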

[2] = system: TLR4 pathway; experiment: Reporter gene assay NFKB (TLR4); assay type: cell-based; conditions: concentrations as high as 100 μM
Experimental: (§1) CETSA was also used to confirm that the compounds are binding to cGAS in cells; THP-1 cells are used for this analysis. Compounds were tested in dose response mode by incubating with cells for 1.5 hours at 37° C., followed by pelleting and re-suspending in PBS, heating to 51.5° C. for 3 min and cooling to room temp. Cells were then lysed, debris, including denatured cGAS, was pelleted and the supernatant was analyzed for soluble cGAS by Western Blot using anti-cGAS primary Ab (Cell Signaling). Band intensity was analyzed using Image J software. Stimulation with cGAMP directly activates STING, circumventing cGAS; this was used to determine if compounds had effects on downstream components of cGAS/STING signaling. The IFN-6 ELISA was used as the primary measure of cellular potency and selectivity (Table 3) and used the reporter gene assays for assessing off-target activity with other pattern recognition receptors.
(§2) The reporter gene assays were used to assess off-target activity with IRF30Luc (RIG-1) or NFKB (TLR4); CellTiter Glo (ATP levels) and Presto Blue (reducing equivalents) were used to assess cytotoxicity; all assays were performed in dose response mode. […] The inventors recently began using human PBMCs to assess cellular potency in a more physiologically relevant context.

[3] = Kinetic aqueous solubility (KSOL) in PBS, pH 7.4; assay type: physicochemical; conditions: aqueous buffer, kinetic from dmso stock
Experimental: (§3) ADME studies: Compound A and the compounds of the disclosure were tested for aqueous solubility (KSOL), metabolic stability (human and mouse […]) and permeability (Caco-2 and/or MDR1-MDCK cells) to provide an initial indication of oral bioavailability.
(§4) The favorable physicochemical properties are reflected in promising results in in vitro ADME tests. […] Metabolic stability, which was routinely measured with mouse and human hepatocytes, is outstanding, with t, greater than 2 hours for all of the compounds of the disclosure in which it has been measured. Cell permeability was measured using MDCK cells expressing human MDR1 (P-glycoprotein) to assess passive permeability as well as active transport out of the cell. […] Numerous compounds in Table 1 meet these permeability criteria, which is consistent with their design for TPSA <140 Å^2 and increased lipophilicity.

[4] = biological target: T1, cGAS; experiment: Cellular thermal shift assay (CETSA) in THP-1 cells; assay type: cell-based; conditions: heat treatment 51.5 °C
Experimental: Panel A is an image of a western blot of the stabilization measure; panel B is a bar graph of the stabilization measure. Heat treatment was conducted at 51.5 ° C.
as §1

[5] = Cytotoxicity, CellTiter Glo (ATP levels) and Presto Blue (reducing equivalents); assay type: cell-based; conditions: concentrations as high as 100 μM
Experimental: as §2

[6] = system: RIG-1 signaling; experiment: Reporter gene assay IRF30Luc (RIG-1); assay type: cell-based; conditions: concentrations as high as 100 μM
Experimental: as §1, §2

[7] = system: isolated Luc reporter enzyme; experiment: Isolated Luc reporter enzyme inhibition; assay type: biochemical; conditions: at 80 μM
[8] = biological target: mouse cGAS (Mus musculus, UniProt Q8C6L5); experiment: Transcreener cGAS enzymatic assay with mouse cGAS; assay type: biochemical; conditions: standard conditions, read-out: IC50 with mcGAS
Sequence of mouse cGAS (Q8C6L5 whole entry): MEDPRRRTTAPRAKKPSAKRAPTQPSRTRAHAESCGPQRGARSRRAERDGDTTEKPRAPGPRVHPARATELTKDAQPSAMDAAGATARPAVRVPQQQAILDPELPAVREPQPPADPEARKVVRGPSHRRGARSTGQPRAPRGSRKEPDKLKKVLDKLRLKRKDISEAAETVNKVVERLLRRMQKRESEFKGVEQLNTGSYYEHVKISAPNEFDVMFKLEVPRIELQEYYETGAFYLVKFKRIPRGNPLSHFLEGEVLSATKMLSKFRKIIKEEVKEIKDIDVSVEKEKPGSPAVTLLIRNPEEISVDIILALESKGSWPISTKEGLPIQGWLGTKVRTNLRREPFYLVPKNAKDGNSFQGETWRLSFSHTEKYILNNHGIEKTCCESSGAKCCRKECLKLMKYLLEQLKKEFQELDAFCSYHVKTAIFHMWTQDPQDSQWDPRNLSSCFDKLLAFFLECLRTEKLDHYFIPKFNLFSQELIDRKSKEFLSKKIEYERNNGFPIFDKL
Experimental: Structural, biochemical and biophysical analysis and selectivity profiling: Potency and MOA studies, including Mn^2+ sensitivity, were performed using the Transcreener cGAS enzymatic assay, which is manufactured at BellBrook Labs (Fitchburg, Wisconsin, USA). This homogenous cGAS enzymatic assay was developed with fluorescence polarization (FP) and time-resolved Forster resonance energy transfer (TR-FRET) readouts, as described in International Patent Publication WO 2020/142729, incorporated by reference herein in its entirety. Plates are read on a PHERAstar FSX multimode reader (BMG). The compounds of the disclosure were tested for inhibition of cGAS ([…]) using this cGAS enzymatic assay under standard conditions (100 μM ATP and GTP, 62.5 nM bp ISD, 60 minute reactions), high ATP and GTP (1 mM) to mimic physiological conditions, in the presence of 200 μM MnCl2, and with mouse cGAS under standard conditions.
Potency with mcGAS is important for vivo efficacy studies and represents a challenge for lead development because mcGAS shares only 57% amino acid identity with human enzyme and there are significant functional differences.

[9] = Metabolic stability in mouse hepatocytes; assay type: in vitro ADME; conditions: read-out: Mouse MS Stability t1/2
Experimental: as §3, §4
(§5) The MDCK-MDR1 permeability A ->B is shown in Table 2 below, where A represents 5-10 cm/s×10^−6; B represents 1-5 cm/s×10^−6; and C represents <1 cm/ss×10^−6. The metabolic stability half time, in both mouse and human hepatocytes, is also shown in Table 2 below, where A′ represents 100-200 minutes; B′ represents 200-300 minutes; and C′ represents >300 minutes.

[10] = biological target: isolated SEAP reporter enzyme (Homo sapiens, UniProt P05187); experiment: Isolated SEAP reporter enzyme inhibition; assay type: biochemical
Sequence of isolated SEAP reporter enzyme (P05187 23-511 limits assumed): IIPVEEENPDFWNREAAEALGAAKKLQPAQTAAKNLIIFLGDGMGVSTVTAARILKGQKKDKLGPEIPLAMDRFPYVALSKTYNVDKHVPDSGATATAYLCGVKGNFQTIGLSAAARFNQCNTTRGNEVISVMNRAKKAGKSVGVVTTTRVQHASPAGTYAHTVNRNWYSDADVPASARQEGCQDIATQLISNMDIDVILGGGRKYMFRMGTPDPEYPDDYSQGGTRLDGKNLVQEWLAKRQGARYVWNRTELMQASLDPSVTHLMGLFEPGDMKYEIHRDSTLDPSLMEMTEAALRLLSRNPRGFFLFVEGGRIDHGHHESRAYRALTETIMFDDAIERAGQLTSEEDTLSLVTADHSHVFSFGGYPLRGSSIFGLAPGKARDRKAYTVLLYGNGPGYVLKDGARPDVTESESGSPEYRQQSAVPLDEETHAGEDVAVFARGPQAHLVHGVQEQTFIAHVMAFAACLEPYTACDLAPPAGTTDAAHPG

[11] = system: MDR1 (P-glycoprotein); experiment: MDCK-MDR1 permeability A→B; assay type: in vitro ADME, Canine; conditions: dog; MDCK cells expressing human MDR1, A→B; read-out: MDCK-MDR Permeability A→B
Outline: (§6)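 Permeability measured apical-to-basolateral in MDCK cells expressing human MDR1, reported as binned ranges in cm/s×10^−6. Metabolic stability determined as half-life in mouse and human hepatocytes, reported as binned ranges in minutes.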

[12] = system: IFNβ production in THP-1 cells; experiment: IFNβ ELISA in THP-1 cells; assay type: cell-based, human; conditions: for pIC50: Homo sapiens, THP-1 cells
Outline: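 THP-1 cells stimulated with dsDNA or cGAMP (STING activation bypassing cGAS) in the presence of compound; IFNβ secreted into medium quantified by ELISA. IC50 values reported in potency bins.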

[13] = Metabolic stability in human hepatocytes; assay type: in vitro ADME; conditions: read-out: Human MS Stability t1/2
Experimental: as §3, §4, §5

[14] = system: IFN-β production in PBMCs; experiment: IFNβ ELISA in human primary PBMCs; assay type: cell-based; conditions: PBMC
Description: Cellular assays: The human monocyte cell line THP-1 and human primary PBMCs were used to evaluate the cellular activity of compounds with good biochemical potency. These cells produce a robust cGAS/STING-dependent type I IFN response when stimulated with dsDNA and other pathogen-associated molecular patterns, which was detected using a standard ELISA for IFNβ (R&D Systems). The TBK1 inhibitor, BX-795, which acts downstream of cGAS/STING, was used as a probe.
The ICso values for IFNB ELISA stimulated with THP-1, PBMC, DNA, and cGAMP were determined for several exemplary compounds of the invention, and are provided in Table 3 where A represents <1 μM; B represents 1-2.5 μM; C represents 2.5-10 μM; D represents 10-20 μM; and E represents >20 μM.
as §2

[15] = system: MDCK cells expressing human MDR1 (P-glycoprotein); experiment: MDCK-MDR1 permeability A→B; assay type: in vitro ADME, Canine
Outline: as §6

[16] = Metabolic stability in human liver microsomes; assay type: in vitro ADME; conditions: read-out: Human MS Stability t1/2
Experimental: as §3, §5

[17] = Metabolic stability in mouse liver microsomes; assay type: in vitro ADME; conditions: read-out: Mouse MS Stability t1/2
Experimental: as §3, §5

[18] = high ATP and GTP (1 mM) to mimic physiological conditions, read-out: IC50 FP Physiological
[19] = standard conditions: 100 μM ATP and GTP, 62.5 nM bp ISD, 60 minute reactions, read-out: IC50 FP Standard

T1 sequence (Q8N884 whole entry): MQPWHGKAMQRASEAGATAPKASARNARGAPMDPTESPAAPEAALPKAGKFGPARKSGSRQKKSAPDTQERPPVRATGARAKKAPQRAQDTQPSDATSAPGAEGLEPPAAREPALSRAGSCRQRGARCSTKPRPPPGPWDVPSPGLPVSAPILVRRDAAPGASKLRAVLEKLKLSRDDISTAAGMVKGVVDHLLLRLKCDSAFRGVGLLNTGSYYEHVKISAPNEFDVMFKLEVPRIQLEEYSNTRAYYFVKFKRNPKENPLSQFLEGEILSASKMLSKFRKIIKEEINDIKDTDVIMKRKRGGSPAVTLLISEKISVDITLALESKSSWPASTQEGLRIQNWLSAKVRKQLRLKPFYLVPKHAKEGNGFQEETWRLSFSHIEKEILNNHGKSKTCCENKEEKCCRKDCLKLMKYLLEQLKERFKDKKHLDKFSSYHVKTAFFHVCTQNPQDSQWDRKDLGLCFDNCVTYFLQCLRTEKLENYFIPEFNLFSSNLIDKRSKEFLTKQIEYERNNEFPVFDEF

Row | SMILES | pIC50 [1, 18] | pIC50 [1, 19] | Inhibition of TLR4 signaling [2] | solubility kinetic [3] [µM] | Stabilization of cGAS in cells (CETSA) [4] | Cytotoxicity [5] | Inhibition of RIG-1 signaling [6] | Inhibition of isolated Luc [7] [%] | pIC50 [8] | half-life [9] [min] | Inhibition of isolated SEAP reporter enzyme [10] | Papp A→B [11] [×10⁻⁶ cm/s] | pIC50 [12] | half-life [13] [min] | pIC50 [14] | MDCK-MDR Permeability A→B [15] | half-life ([9]; given as number) [min] | Cellular IC50 relative to biochemical IC50 ([12]; cellular assays vs cGAS enzymatic assay at 1 mM ATP/GTP) | half-life [16] [min] | half-life [17] [min]
1 | Cc1nc(N2C[C@@H](CC(=O)Nc3ccc4ncsc4c3)C[C@H]2C(=O)O)c2oc3ccccc3c2n1 [Compound 4, (2S,4R)-4-(2-(benzo[d]thiazol-6-ylamino)-2-oxyethyl)-1-(2-methylbenzofuro[3,2-d]pyrimidin-4-yl)pyrrolidine-2-carboxylic acid] | > 6.70 | 7.00 to 7.30 | no detectable inhibition | 488 (≈ 238 µg/mL) | stabilized cGAS | no cytotoxicity | no detectable inhibition | 50 | 5.08 | 100 to 200 | appreciably | 1 to 5 | < 4.70 | – | – | – | – | – | – | –
2 | Cc1nc(N2C[C@@H](CC(=O)Nc3ccc(Cl)c(Cl)c3)C[C@H]2C(=O)O)c2oc3ccccc3c2n1 [Compound 26, (2S,4R)-4-(2-((3,4-dichlorophenyl)amino)-2-oxoethyl)-1-(2-methylbenzofuro[3,2-d]pyrimidin-4-yl)pyrrolidine-2-carboxylic acid] | 5.30 to 6.00 | 6.00 to 6.70 | – | 80 (≈ 39.9 µg/mL) | – | – | – | – | – | > 300 | – | 5 to 10 | 5.00 to 5.60 | > 300 | 5.00 to 5.60 | – | – | – | – | –
3 | C#Cc1ccc(NC(=O)C[C@H]2C[C@@H](C(=O)O)N(c3nc(C)nc4c3oc3ccccc34)C2)cc1 [Compound 27, (2S,4R)-4-(2-((4-ethynylphenyl)amino)-2-oxoethyl)-1-(2-methylbenzofuro[3,2-d]pyrimidin-4-yl)pyrrolidine-2-carboxylic acid] | 5.30 to 6.00 | 6.70 to 7.00 | – | 548 (≈ 249 µg/mL) | – | – | – | – | – | > 300 | – | 1 to 5 | 5.00 to 5.60 | 100 to 200 | 5.00 to 5.60 | – | – | – | – | –
4 | Cc1nc(N2C[C@@H](CC(=O)Nc3ccc4ccccc4c3)C[C@H]2C(=O)O)c2oc3ccccc3c2n1 [Compound 31, (2S,4R)-1-(2-methylbenzofuro[3,2-d]pyrimidin-4-yl)-4-(2-(naphthalen-2-ylamino)-2-oxoethyl)pyrrolidine-2-carboxylic acid] | 6.30 to 6.70 | 7.00 to 7.30 | – | 313 (≈ 150 µg/mL) | – | – | – | – | – | > 300 | – | 5 to 10 | 5.60 to 6.00 | 100 to 200 | 5.60 to 6.00 | – | – | – | – | –
5 | Cc1nc(N2C[C@@H](CC(=O)Nc3cccc(-c4ccccc4)c3)C[C@H]2C(=O)O)c2oc3ccccc3c2n1 [Compound 36, (2S,4R)-4-(2-([1,1′-biphenyl]-3-ylamino)-2-oxoethyl)-1-(2-methylbenzofuro[3,2-d]pyrimidin-4-yl)pyrrolidine-2-carboxylic acid] | 6.30 to 6.70 | 7.00 to 7.30 | – | 155 (≈ 78.5 µg/mL) | – | – | – | – | – | > 300 | – | 1 to 5 | 5.60 to 6.00 | > 300 | 5.60 to 6.00 | – | – | – | – | –
6 | Cc1nc(N2C[C@@H](CC(=O)Nc3ccc(-c4cccc5[nH]ncc45)cc3)C[C@H]2C(=O)O)c2oc3ccccc3c2n1 [Compound 46, (2S,4R)-4-(2-((4-(1H-indazol-4-yl)phenyl)amino)-2-oxoethyl)-1-(2-methylbenzofuro[3,2-d]pyrimidin-4-yl)pyrrolidine-2-carboxylic acid] | > 6.70 | > 7.30 | – | 42 (≈ 23 µg/mL) | – | – | – | – | – | > 300 | – | – | > 6.00 | 100 to 200 | 5.60 to 6.00 | C (C represents <1 cm/ss×10^−6) | – | – | – | –
7 | Cc1nc(N2C[C@@H](CC(=O)Nc3ccc(Cc4ccccc4)cc3)C[C@H]2C(=O)O)c2oc3ccccc3c2n1 [Compound 54, (28.4R)-4-(2-((4-benzylphenyl)amino)-2-oxoethyl)-1-(2-methylbenzofuro[3,2-d]pyrimidin-4-yl)pyrrolidine-2-carboxylic acid] | 6.00 to 6.30 | 7.00 to 7.30 | – | 285 (≈ 148 µg/mL) | – | – | – | – | – | 100 to 200 | – | 1 to 5 | 5.60 to 6.00 | 100 to 200 | 5.00 to 5.60 | – | – | – | – | –
8 | Cc1nc(N2C[C@@H](CC(=O)Nc3ccc(-c4ccccc4)c(C(F)(F)F)c3)C[C@H]2C(=O)O)c2oc3ccccc3c2n1 [Compound 63, (2S,4R)-1-(2-methylbenzofuro[3,2-d]pyrimidin-4-yl)-4-(2-oxo-2-((2-(trifluoromethyl)-[1,1′-biphenyl]-4-yl)amino)ethyl)pyrrolidine-2-carboxylic acid] | 6.30 to 6.70 | 6.70 to 7.00 | – | 570 (≈ 327 µg/mL) | – | – | – | – | – | – | – | 1 to 5 | > 6.00 | 100 to 200 | 5.60 to 6.00 | – | > 360 | essentially identical | – | –
9 | Cc1nc(N2C[C@@H](CC(=O)Nc3ccncc3)C[C@H]2C(=O)O)c2oc3ccccc3c2n1 [Compound A, (2S,4R)-1-(2-methylbenzofuro[3,2-d]pyrimidin-4-yl)-4-(2-oxo-2-(pyridine-4-ylamino)ethyl)pyrrolidine-2-carboxylic acid, reference compound] | – | – | – | 542 (≈ 234 µg/mL) | – | – | – | – | – | – | – | – | < 4.70 | – | – | C (C represents <1 cm/ss×10^−6) | – | – | 100 to 200 | 100 to 200
